One assay deals with human TLR7 (Homo sapiens (Human), UniProt Q9NYK1). Kind of assay: TLR7 inhibition reporter assay (HEK-Blue SEAP). The assay is classed as cell-based. The conditions noted are these: HEK-Blue cells overexpressing human TLR7, SEAP reporter, gardiquimod 7.5 μM. (In general: Reporter assays use an easily measured gene product as a stand-in for the process of interest.)
In the next assay the target is human TLR8 (Homo sapiens (Human), UniProt Q9NR97). Kind of assay: TLR8 inhibition reporter assay (HEK-Blue SEAP).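 Further: SEAP driven by IFN-β minimal promoter carrying NF-κB and AP-1 sites, compounds dosed 0.05 nM to 50 µM for 22 h, inhibition scaled between agonist-plus-DMSO and reference-inhibitor wells.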 The following applies: read-out: TLR8 IC50; HEK-Blue cells overexpressing human TLR8, SEAP reporter, R848 15.9 μM.
Sequence of human TLR8 (Q9NR97 27-1041): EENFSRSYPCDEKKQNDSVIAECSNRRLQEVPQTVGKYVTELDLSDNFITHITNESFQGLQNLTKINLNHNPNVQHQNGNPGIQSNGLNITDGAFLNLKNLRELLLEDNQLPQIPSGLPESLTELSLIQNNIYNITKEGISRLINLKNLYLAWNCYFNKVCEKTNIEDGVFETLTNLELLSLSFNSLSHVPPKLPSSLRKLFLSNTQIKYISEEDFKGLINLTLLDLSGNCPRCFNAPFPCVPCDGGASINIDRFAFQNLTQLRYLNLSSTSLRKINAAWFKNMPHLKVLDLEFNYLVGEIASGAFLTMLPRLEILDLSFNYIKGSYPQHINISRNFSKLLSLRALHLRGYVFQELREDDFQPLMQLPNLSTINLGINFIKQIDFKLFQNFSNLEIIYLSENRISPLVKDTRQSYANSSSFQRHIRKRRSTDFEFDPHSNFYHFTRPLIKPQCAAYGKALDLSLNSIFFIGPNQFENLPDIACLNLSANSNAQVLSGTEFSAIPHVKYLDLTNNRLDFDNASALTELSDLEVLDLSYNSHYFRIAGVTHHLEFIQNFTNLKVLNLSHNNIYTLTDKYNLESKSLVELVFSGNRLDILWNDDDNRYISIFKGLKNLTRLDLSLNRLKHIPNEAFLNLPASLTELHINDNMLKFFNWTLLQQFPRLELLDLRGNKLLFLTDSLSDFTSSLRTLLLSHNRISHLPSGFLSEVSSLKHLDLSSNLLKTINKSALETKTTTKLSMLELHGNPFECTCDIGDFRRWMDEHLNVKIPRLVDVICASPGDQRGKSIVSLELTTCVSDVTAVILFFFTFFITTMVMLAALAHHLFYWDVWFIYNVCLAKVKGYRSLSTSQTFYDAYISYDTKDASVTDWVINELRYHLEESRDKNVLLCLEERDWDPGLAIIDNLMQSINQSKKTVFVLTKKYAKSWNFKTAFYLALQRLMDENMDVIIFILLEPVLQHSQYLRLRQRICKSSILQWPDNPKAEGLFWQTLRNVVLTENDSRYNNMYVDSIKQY
Another assay addresses human TLR9 (Homo sapiens (Human), UniProt Q9NR96). Kind of assay: TLR9 inhibition reporter assay (HEK-Blue SEAP).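 Further: SEAP driven by an IFN-β minimal promoter with NF-κB and AP-1 sites, read after 22 h, compounds dosed 0.05 nM–50 µM, inhibition scaled between agonist plus DMSO and reference-inhibitor wells.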 The conditions noted are these: read-out: TLR9 IC50; HEK-Blue cells overexpressing human TLR9, SEAP reporter, ODN2006 5 nM.

Each structure is given as a SMILES string. Where only a bound is given, the exact number is not on record here.

Our source for the IC50 values is patent US10544143B2, “4-azaindole compounds” (BRISTOL-MYERS SQUIBB COMPANY, priority 2017, dated 2020).

Sequence of human TLR9 (Q9NR96 26-1032): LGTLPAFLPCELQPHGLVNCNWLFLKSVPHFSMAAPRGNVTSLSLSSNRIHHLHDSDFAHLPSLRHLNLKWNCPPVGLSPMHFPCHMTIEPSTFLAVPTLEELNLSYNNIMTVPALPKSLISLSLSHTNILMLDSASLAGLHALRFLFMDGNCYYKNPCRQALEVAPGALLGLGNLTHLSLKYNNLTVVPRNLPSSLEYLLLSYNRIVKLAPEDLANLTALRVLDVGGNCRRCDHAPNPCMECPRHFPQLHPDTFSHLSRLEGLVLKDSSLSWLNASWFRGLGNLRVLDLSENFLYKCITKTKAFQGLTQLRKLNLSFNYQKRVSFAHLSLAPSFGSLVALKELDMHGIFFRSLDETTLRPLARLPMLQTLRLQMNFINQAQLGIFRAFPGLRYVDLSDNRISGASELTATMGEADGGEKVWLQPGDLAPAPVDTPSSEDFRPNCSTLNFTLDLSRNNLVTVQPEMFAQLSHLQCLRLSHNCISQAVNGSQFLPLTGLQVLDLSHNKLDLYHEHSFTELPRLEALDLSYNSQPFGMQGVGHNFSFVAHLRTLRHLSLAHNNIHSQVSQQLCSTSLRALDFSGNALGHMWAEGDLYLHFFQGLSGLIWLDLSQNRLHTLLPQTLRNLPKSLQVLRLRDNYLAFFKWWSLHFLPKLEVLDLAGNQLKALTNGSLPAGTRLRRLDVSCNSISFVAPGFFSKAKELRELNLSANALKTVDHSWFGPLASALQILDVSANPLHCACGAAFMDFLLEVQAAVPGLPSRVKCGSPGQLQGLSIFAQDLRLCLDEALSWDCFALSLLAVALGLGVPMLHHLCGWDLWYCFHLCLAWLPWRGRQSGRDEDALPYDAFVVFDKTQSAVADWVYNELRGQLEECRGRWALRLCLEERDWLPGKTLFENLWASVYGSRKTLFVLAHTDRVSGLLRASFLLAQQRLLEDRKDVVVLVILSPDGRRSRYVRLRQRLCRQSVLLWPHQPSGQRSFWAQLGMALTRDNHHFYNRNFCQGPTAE
Sequence of human TLR7 (Q9NYK1 27-1049): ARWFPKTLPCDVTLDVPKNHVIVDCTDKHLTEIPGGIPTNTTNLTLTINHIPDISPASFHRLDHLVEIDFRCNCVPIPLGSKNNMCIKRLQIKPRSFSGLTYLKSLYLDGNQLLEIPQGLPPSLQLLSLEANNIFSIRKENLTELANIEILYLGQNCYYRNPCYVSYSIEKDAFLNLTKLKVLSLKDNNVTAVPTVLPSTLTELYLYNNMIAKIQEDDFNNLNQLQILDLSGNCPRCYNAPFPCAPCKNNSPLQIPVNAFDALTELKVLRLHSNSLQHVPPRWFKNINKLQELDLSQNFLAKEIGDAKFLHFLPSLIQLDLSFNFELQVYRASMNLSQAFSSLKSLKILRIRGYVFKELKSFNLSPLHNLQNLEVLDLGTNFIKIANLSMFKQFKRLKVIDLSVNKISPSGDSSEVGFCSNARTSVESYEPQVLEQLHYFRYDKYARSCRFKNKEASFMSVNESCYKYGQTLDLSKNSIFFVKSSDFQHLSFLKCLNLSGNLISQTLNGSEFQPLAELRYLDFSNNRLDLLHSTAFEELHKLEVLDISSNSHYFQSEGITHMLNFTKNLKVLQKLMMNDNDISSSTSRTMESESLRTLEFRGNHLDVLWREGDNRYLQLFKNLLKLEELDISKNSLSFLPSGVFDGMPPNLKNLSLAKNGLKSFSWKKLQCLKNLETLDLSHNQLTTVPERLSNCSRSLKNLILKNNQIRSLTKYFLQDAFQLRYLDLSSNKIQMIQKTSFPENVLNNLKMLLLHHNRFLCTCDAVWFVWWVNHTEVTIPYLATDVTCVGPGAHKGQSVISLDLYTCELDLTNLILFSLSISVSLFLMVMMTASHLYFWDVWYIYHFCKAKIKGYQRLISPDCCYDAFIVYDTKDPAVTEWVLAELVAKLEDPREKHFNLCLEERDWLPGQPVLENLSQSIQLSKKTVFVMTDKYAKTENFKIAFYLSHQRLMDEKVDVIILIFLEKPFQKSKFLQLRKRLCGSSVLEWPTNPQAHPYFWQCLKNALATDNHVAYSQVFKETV

As a reminder, the IC50 is the concentration that inhibits the measured activity by half. For `COc1cc(-c2[nH]c3ccc(C4CCC(NC5CCOCC5)C4)nc3c2C(C)C)cn2ncnc12` (stereo not drawn) [Example 710], the figures for the IC50 at human TLR7, on human TLR8 and at human TLR9 were 2 nM, 3.2 nM and 4660 nM, respectively.

For `COc1cc(-c2[nH]c3ccc(C4CCC(NCC5(C)COC5)C4)nc3c2C(C)C)cn2ncnc12` (stereo not drawn) [Example 711], the IC50 against human TLR7 came to 2 nM; at human TLR8, 2.9 nM; at human TLR9, 1700 nM.

In the case of `COc1cc(-c2[nH]c3ccc(C4CCC(NC(=O)CN(C)C)C4)nc3c2C(C)C)cn2ncnc12` (stereo not drawn) [Example 712], the IC50 was determined as 1.9 nM against human TLR7, 11 nM at human TLR8 and 3140 nM on human TLR9.

For `COc1cc(-c2[nH]c3ccc(C4CCC(N(CC#N)CC#N)C4)nc3c2C(C)C)cn2ncnc12` (stereo not drawn) [Example 713], the IC50 was 6.2 nM at human TLR7, 28 nM on human TLR8 and 4880 nM at human TLR9.

On to `COc1cc(-c2[nH]c3ccc(C4CCC(NC(=O)C5CCN(C)CC5)C4)nc3c2C(C)C)cn2ncnc12` (stereo not drawn) [Example 714], for which the values for the IC50 on human TLR7, at human TLR8 and on human TLR9 were 1.8 nM, 9.3 nM and 203 nM, respectively.

As to `COc1cc(-c2[nH]c3ccc(C4CCC(NC5COC5)C4)nc3c2C(C)C)cn2ncnc12` (stereo not drawn) [Example 715], the results for the IC50 on human TLR7, at human TLR8 and on human TLR9 were 1.7 nM, 11 nM and 8710 nM, respectively.

Consider `COc1cc(-c2[nH]c3ccc(C4CCC(NCC#N)C4)nc3c2C(C)C)cn2ncnc12` (stereo not drawn) [Example 716], for which the IC50 amounted to 0.74 nM against human TLR7, 6.7 nM at human TLR8 and 2530 nM at human TLR9.

As for `COc1cc(-c2[nH]c3ccc(C4CCC(N(CCS(C)(=O)=O)CCS(C)(=O)=O)C4)nc3c2C(C)C)cn2ncnc12` (stereo not drawn) [Example 717], the IC50 at human TLR7 was 1060 nM; on human TLR8, 1100 nM; at human TLR9 it was 2520 nM.

`COc1cc(-c2[nH]c3ccc(C4CCC(NCC5(C)COC5)C4)nc3c2C(C)C)cn2ncnc12` (stereo not drawn) [Example 718]: the IC50 against human TLR7 was 9.6 nM; on human TLR8, 3.6 nM; on human TLR9, 6210 nM.

Consider `CNC(=O)CNC1CCC(c2ccc3[nH]c(-c4cc(OC)c5ncnn5c4)c(C(C)C)c3n2)C1` (stereo not drawn) [Example 719], for which the IC50 against human TLR7 was determined as 2.8 nM; at human TLR8 it was 7 nM; at human TLR9 it was 2600 nM.

Regarding `COc1cc(-c2[nH]c3ccc(C4CCC(N(CC(N)=O)CC(N)=O)C4)nc3c2C(C)C)cn2ncnc12` (stereo not drawn) [Example 720], the IC50 came to 13 nM on human TLR7, 94 nM at human TLR8 and 20300 nM at human TLR9.

In the case of `COc1cc(-c2[nH]c3ccc(C4CCC(NC5CCOCC5)C4)nc3c2C(C)C)cn2ncnc12` (stereo not drawn) [Example 721], the IC50 against human TLR7 was found to be 0.41 nM; on human TLR8, 0.53 nM; at human TLR9, 982 nM.

As for `COc1cc(-c2[nH]c3ccc(C4CCC(N(CC(=O)N(C)C)CC(=O)N(C)C)C4)nc3c2C(C)C)cn2ncnc12` (stereo not drawn) [Example 722], the results for the IC50 against human TLR7, on human TLR8 and at human TLR9 were 6.5 nM, 46 nM and 18500 nM, respectively.

On to `COc1cc(-c2[nH]c3ccc(C4CCC(NC(C)C)C4)nc3c2C(C)C)cn2ncnc12` (stereo not drawn) [Example 723], for which the values for the IC50 on human TLR7, on human TLR8 and at human TLR9 were 0.99 nM, 2.4 nM and 4390 nM, respectively.

Turning to `COc1cc(-c2[nH]c3ccc(C4CCC(NC(C)C5CC5)C4)nc3c2C(C)C)cn2ncnc12` (stereo not drawn) [Example 724], the figures for the IC50 at human TLR7, at human TLR8 and at human TLR9 were 0.63 nM, 2 nM and 2190 nM, respectively.

In the case of `CNC(=O)CNC1CCC(c2ccc3[nH]c(-c4cc(OC)c5ncnn5c4)c(C(C)C)c3n2)C1` (stereo not drawn) [Example 725], the IC50 against human TLR7 is 0.62 nM; on human TLR8, 1.9 nM; at human TLR9, 2060 nM.

`COc1cc(-c2[nH]c3ccc(C4CCC(N(CCS(C)(=O)=O)CCS(C)(=O)=O)C4)nc3c2C(C)C)cn2ncnc12` (stereo not drawn) [Example 726]: the results for the IC50 against human TLR7, at human TLR8 and at human TLR9 were 1360 nM, 2090 nM and 39400 nM, respectively.

With `COc1cc(-c2[nH]c3ccc(C4CCC(NC5CCOCC5)C4)nc3c2C(C)C)cn2ncnc12` (stereo not drawn) [Example 727], the values for the IC50 at human TLR7, on human TLR8 and on human TLR9 were 3.6 nM, 3.2 nM and 3350 nM, respectively.

As to `COc1cc(-c2[nH]c3ccc(C4CCC(NCC5(C)COC5)C4)nc3c2C(C)C)cn2ncnc12` (stereo not drawn) [Example 728], the IC50 was determined as 0.74 nM against human TLR7, 0.67 nM on human TLR8 and 3540 nM at human TLR9.

On to `COc1cc(-c2[nH]c3ccc(C4CCC(NC5CCOC(C)(C)C5)C4)nc3c2C(C)C)cn2ncnc12` (stereo not drawn) [Example 729], for which the IC50 against human TLR7 is 1.1 nM; at human TLR8, 1.3 nM; at human TLR9 it was 1940 nM.

Take `COc1cc(-c2[nH]c3ccc(C4CCC(N(CC#N)CC#N)C4)nc3c2C(C)C)cn2ncnc12` (stereo not drawn) [Example 730]: the values for the IC50 on human TLR7, at human TLR8 and on human TLR9 were 3.3 nM, 23 nM and 10500 nM, respectively.

As for `COc1cc(-c2[nH]c3cc(C)c(C(=O)NC4CCN(C(C)C)CC4)nc3c2C(C)C)cn2ncnc12` [Example 731], the IC50 amounted to 4.6 nM at human TLR7, 15 nM at human TLR8 and 1640 nM on human TLR9.

On to `COc1cc(-c2[nH]c3cc(C)c(C(=O)N(C)CCN(C)C)nc3c2C(C)C)cn2ncnc12` [Example 732], for which the results for the IC50 at human TLR7, at human TLR8 and on human TLR9 were 10 nM, 70 nM and 4830 nM, respectively.

For `COc1cc(-c2[nH]c3cc(C)c(C(=O)N4CCN(C(C)=O)CC4)nc3c2C(C)C)cn2ncnc12` [Example 733], the IC50 at human TLR7 was 53 nM; on human TLR8 it was 1010 nM; at human TLR9 it was above 50000 nM.

With `COc1cc(-c2[nH]c3cc(C)c(C(=O)N(C)CCC(F)(F)F)nc3c2C(C)C)cn2ncnc12` [Example 734], the IC50 was 26 nM against human TLR7, 252 nM on human TLR8 and above 50000 nM at human TLR9.

Turning to `Cc1cc(-c2[nH]c3ccc(-c4cnn(C5CCNCC5)c4)nc3c2C(C)C)cn2ncnc12` [Example 735], the IC50 at human TLR7 was determined as 25 nM; on human TLR8, 61 nM; on human TLR9, 262 nM.

Consider `Cc1cc(-c2[nH]c3ccc(-c4cnn(CCN5CCOCC5)c4)nc3c2C(C)C)cn2ncnc12` [Example 736], for which the IC50 at human TLR7 was 631 nM; on human TLR8, 269 nM; at human TLR9, above 50000 nM.

As to `Cc1c(-c2[nH]c3ccc(N4C[C@@H](C)NC[C@@H]4C)nc3c2C(C)C)cn2ncnc2c1C` [Example 737, 6-(5-((2S,5R)-2,5-dimethylpiperazin-1-yl)-3-isopropyl-1H-pyrrolo[3,2-b]pyridin-2-yl)-7,8-dimethyl-[1,2,4]triazolo[1,5-a]pyridine], the IC50 against human TLR7 was 0.59 nM; at human TLR8 it was 0.55 nM; on human TLR9, 7770 nM.

As for `Cc1c(-c2[nH]c3ccc(N4C[C@@H](C)N(C(=O)CN5CCCC5)C[C@@H]4C)nc3c2C(C)C)cn2ncnc2c1C` [Example 738, 1-((2R,5S)-4-(2-(7,8-dimethyl-[1,2,4]triazolo[1,5-a]pyridin-6-yl)-3-isopropyl-1H-pyrrolo[3,2-b]pyridin-5-yl)-2,5-dimethylpiperazin-1-yl)-2-(pyrrolidin-1-yl)ethan-1-one], the IC50 on human TLR7 was 0.46 nM; on human TLR8 it was 0.89 nM; at human TLR9 it was 6230 nM.

On to `Cc1c(-c2[nH]c3ccc(N4C[C@@H](C)N(C(=O)CCN5CCCC5)C[C@@H]4C)nc3c2C(C)C)cn2ncnc2c1C` [Example 739, 1-((2R,5S)-4-(2-(7,8-dimethyl-[1,2,4]triazolo[1,5-a]pyridin-6-yl)-3-isopropyl-1H-pyrrolo[3,2-b]pyridin-5-yl)-2,5-dimethylpiperazin-1-yl)-3-(pyrrolidin-1-yl)propan-1-one], for which the IC50 on human TLR7 amounted to 0.85 nM; at human TLR8, 1.6 nM; at human TLR9, 5320 nM.

Consider `Cc1c(-c2[nH]c3ccc(N4CC5(CNC5)C4)nc3c2C(C)C)cn2ncnc2c1C` [Example 740, 6-(3-isopropyl-5-(2,6-diazaspiro[3.3]heptan-2-yl)-1H-pyrrolo[3,2-b]pyridin-2-yl)-7,8-dimethyl-[1,2,4]triazolo[1,5-a]pyridine], for which the IC50 against human TLR7 is 2.2 nM; on human TLR8 it was 5.1 nM; on human TLR9 it was 623 nM.

`Cc1c(-c2[nH]c3ccc(N4CC5(CN(C)C5)C4)nc3c2C(C)C)cn2ncnc2c1C` [Example 741, 6-(3-isopropyl-5-(6-methyl-2,6-diazaspiro[3.3]heptan-2-yl)-1H-pyrrolo[3,2-b]pyridin-2-yl)-7,8-dimethyl-[1,2,4]triazolo[1,5-a]pyridine]: the IC50 came to 1.9 nM on human TLR7, 6.5 nM on human TLR8 and 3030 nM on human TLR9.

In the case of `Cc1c(-c2[nH]c3ccc(N4CC5(CN(CC(=O)N(C)C)C5)C4)nc3c2C(C)C)cn2ncnc2c1C` [Example 742, 2-(6-(2-(7,8-dimethyl-[1,2,4]triazolo[1,5-a]pyridin-6-yl)-3-isopropyl-1H-pyrrolo[3,2-b]pyridin-5-yl)-2,6-diazaspiro[3.3]heptan-2-yl)-N,N-dimethylacetamide], the IC50 against human TLR7 stood at 2.9 nM; on human TLR8, 3.1 nM; on human TLR9 it was 4580 nM.

Turning to `Cc1c(-c2[nH]c3ccc(N4CC5(CN(C(=O)CN(C)C)C5)C4)nc3c2C(C)C)cn2ncnc2c1C` [Example 743, 1-(6-(2-(7,8-dimethyl-[1,2,4]triazolo[1,5-a]pyridin-6-yl)-3-isopropyl-1H-pyrrolo[3,2-b]pyridin-5-yl)-2,6-diazaspiro[3.3]heptan-2-yl)-2-(dimethylamino)ethan-1-one], the IC50 against human TLR7 was 3.6 nM; at human TLR8 it was 8.4 nM; at human TLR9, 1880 nM.

As to `CCN1CC2(C1)CN(c1ccc3[nH]c(-c4cn5ncnc5c(C)c4C)c(C(C)C)c3n1)C2` [Example 744, 6-(5-(6-ethyl-2,6-diazaspiro[3.3]heptan-2-yl)-3-isopropyl-1H-pyrrolo[3,2-b]pyridin-2-yl)-7,8-dimethyl-[1,2,4]triazolo[1,5-a]pyridine], the figures for the IC50 against human TLR7, on human TLR8 and at human TLR9 were 2 nM, 7.1 nM and 3060 nM, respectively.
